Experiments:
[1] = target: T1, p300 (Homo sapiens, UniProt Q09472); test: In vitro HAT assay with recombinant p300, histones and 14C acetyl-CoA; format: biochemical; settings: for IC50: in vitro HAT assay, recombinant p300 and histones, read-out: IC50, p300 acetyltransferase activity
T1 construct: in vitro acetylation assays with purified histones and a recombinant p300 catalytic domain; purchased Enzo Life Sciences
T1 sequence (Q09472 1287-1663 limits assumed): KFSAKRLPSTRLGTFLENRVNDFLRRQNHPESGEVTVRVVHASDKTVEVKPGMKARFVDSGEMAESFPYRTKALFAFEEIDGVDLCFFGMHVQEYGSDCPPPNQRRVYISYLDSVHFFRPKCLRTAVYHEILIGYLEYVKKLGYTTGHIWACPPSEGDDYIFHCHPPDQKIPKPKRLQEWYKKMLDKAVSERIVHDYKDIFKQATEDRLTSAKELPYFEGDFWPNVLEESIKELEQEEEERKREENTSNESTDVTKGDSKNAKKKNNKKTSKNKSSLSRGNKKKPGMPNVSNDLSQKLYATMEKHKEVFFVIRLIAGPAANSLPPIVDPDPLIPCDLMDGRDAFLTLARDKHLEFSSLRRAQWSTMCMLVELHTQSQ
Experimental: To determine whether salicylate inhibits p300 and other acetyltransferases, we used in vitro acetylation assays with purified histones and a recombinant p300 catalytic domain.
Figure 1. Salicylate inhibits CBP/p300 in vitro. (A) Recombinant p300, CBP, GCN5, or PCAF and histones were incubated with ^14C-labeled acetyl-CoA with or without sodium salicylate, separated by SDS-PAGE, analyzed by autoradiography, and quantified with Image J software. Acetylation levels are relative to those in untreated controls. (B) Thermal stability assay for sodium salicylate binding to the p300 HAT domain. Tm, melting temperature. (C) and (D) Lineweaver-Burk plots showing kinetic analysis of p300 acetyltransferase inhibition by sodium salicylate. Histone acetylation was measured with several concentrations of acetyl-CoA (C) or histone (D) in the presence or absence of sodium salicylate. DOI: http://dx.doi.org/10.7554/eLife.11156.003 Figure 1—figure supplement 1. […] (A) Dose-response data for inhibition of p300 by salicylate and salicyl-CoA. Acetylation of an H4(3–14) peptide was monitored using direct microfluidic mobility shift analysis as previously described ([Montgomery et al., 2014]; [Fanslau et al., 2010]). Error is given as the 95% confidence interval. […] Error is given as the 95% confidence interval. DOI: http://dx.doi.org/10.7554/eLife.11156.004 [drawing 1] TEXT PRINTED IN THE PICTURE: (A) Salicylate: p300 IC50 (mM): 6.12; Confidence Interval [CI95] (mM): 5.2–7.2 | (A) Salicyl-CoA: p300 IC50 (mM): […]; Confidence Interval [CI95] […] (mM): 0.78–1.4 | (B) Diflunisal-CoA: p300 IC50 (mM): 0.02; Confidence Interval [CI95] (mM): 0.02–0.03
Recombinant HAT ([…]), either p300, CBP, PCAF, or GCN5 (Enzo Life Sciences), and 10 µg of histones (Sigma) were incubated with sodium salicylate (Sigma) in reaction buffer (50 mM HEPES, pH 8.0, 10% glycerol, 1 mM) at 30°C for 30 min and then with 0.1 mCi of ^14C acetyl-CoA at 30°C for 60 min. Reactions were stopped by adding 6x sample buffer and analyzed by SDS-PAGE. The gels were dried, and signals were obtained by autoradiography and quantified with Image J software. To quantify acetylated histone levels, we generated a standard curve from signals of lanes loaded with […] of ^14C labeled histones.

[2] = system: Kasumi-1 cells; test: Growth and apoptosis of Kasumi-1 cells (trypan blue, annexin V/7AAD); format: cell-based, human; settings: for Apoptosis, annexin V/7AAD double staining: Kasumi-1, 24 hr
From the text: Previously, we reported that the leukemogenicity of the AML1-ETO fusion protein, generated by a t(8;21) translocation in acute myelogenous leukemia, is regulated by p300-mediated acetylation of lysine 43 of the fusion protein ([Wang et al., 2011]).
Figure 4. […] (B) Kasumi-1 and AE9a cells treated or not with salicylate were counted by trypan-blue exclusion under light microscopy. […] The percentage of sub-G1 cells is shown. […] Cells were counted by trypan-blue exclusion under light microscopy. […] DOI: http://dx.doi.org/10.7554/eLife.11156.011
HEK293T cells (ATCC) were maintained in DMEM supplemented with 10% FCS. The viability of Kasumi-1 cells and AE9a mouse leukemia cells was assessed in triplicate by trypan blue exclusion. The Kasumi cell line was isolated and characterized by one of the coauthors (S. Nimer) ([Becker et al., 2008]). All cell lines were tested annually for mycoplasma contamination. Only negative mycoplasma cultures were used during the conduct of these experiments.
Apoptosis was analyzed with an Annexin V-APC/7AAD Apoptosis kit (Becton-Dickinson) according to manufacturer’s instructions. To assess the distribution of nuclear DNA content in the cell-cycle analysis, cells were collected, washed in PBS, fixed overnight in 75% ethanol at –20°C, treated with 1% RNase A for at least 15 min at 37°C, and stained with […] propidium iodide. To monitor CD34 expression, the cells were stained with an allophycocyanin-conjugated anti-CD34 antibody (Becton Dickinson). To monitor CD11b expression, the cells were stained with a phycoerythrin-conjugated anti-CD11b antibody (Beckman-Coulter). To monitor C-kit and Mac-1 expression, the cells were stained with allophycocyanin-conjugated anti-C-kit and phycoerythrin-conjugated anti-Mac-1 antibodies (Becton-Dickinson). Cells were sorted with a Becton-Dickinson FACSCalibur, and the data were analyzed with FlowJo software.

[3] = system: acetyl p53K382; test: Acetylation of overexpressed p53 in HEK293T cells, Western blot; format: cell-based; settings: HEK293T transfected with p300 and p53, 24 hr
From the text: Figure 2.

`O=C(O)c1cc(-c2ccc(F)cc2F)ccc1O` [diflunisal] was tested, and the IC50 [1] was 0.996 mM, the “Apoptosis, annexin V/7AAD double staining” value [2] was “increased apoptosis in a dose-dependent manner” and the Kasumi-1 cell growth ([2]; trypan-blue exclusion counts) was “inhibition of growth”. For the same compound, the “Acetylation of p53 K382” value [3] was “suppressed acetylation”.
`O=C(O)c1ccccc1O` [salicylate, salicylic acid] was tested, and the “Mode of p300 inhibition against acetyl-CoA” value ([1]; Lineweaver-Burk, various concentrations of acetyl-CoA) was “direct competitive p300 inhibition against acetyl-CoA”, the “Mode of p300 inhibition against histones” value ([1]; Lineweaver-Burk, various concentrations of histone) was “noncompetitive inhibition against histones” and the IC50 [1] was 10.2 mM. The “Apoptosis, annexin V/7AAD double staining” value [2] was “increased apoptosis”, the “Concentration inhibiting cell proliferation” value ([2]; Kasumi-1, trypan-blue exclusion counts) was at least 1 mM and the “Acetylation of p53 K382” value [3] was “decreased acetylation”.

Source: article PMC4931907 (eLife, 2016)
